In US20230190852A1, “COMPOSITIONS AND METHODS FOR JOINT HEALTH” (Unigen, Inc., priority 2013, published 2023):
Marks after values point to notes of the source that are not given here.

Experiments:
[1] = tested on: Rabbit cartilage explants; assay: Ex vivo glycosaminoglycans (GAG) release assay; format: cell-based; settings: for activity at 6.25 µg/mL / activity at 12.5 µg/mL / activity at 25 µg/mL / activity at 50 µg/mL / activity at 100 µg/mL: Oryctolagus cuniculus, 24 h; for activity at 6.25 µg/mL: 6.25 μg/ml; for activity at 12.5 µg/mL: 12.5 μg/ml; for activity at 25 µg/mL: 25 μg/ml; for activity at 50 µg/mL: 50 μg/ml; for activity at 100 µg/mL: 100 μg/ml; for protective effect on rhIL-1α-mediated PG degradation / GAG release: rhIL-1α 5 ng/ml
Procedure: Articular cartilage from hock joints of rabbits (2.5 kg body weight) was removed immediately after each animal was sacrificed and articular cartilage explants were obtained by following the method described by Sandy et al. (Biochem. Biophy Acta 543:36, 1978). Briefly, after the articular surfaces were surgically exposed under sterile conditions, approximately 200-220 mg articular surfaces per joint were dissected and submerged into complete medium (DMEM, supplemented with heat inactivated 5% FBS; penicillin 100 U/ml; streptomycin 100 ug/ml). They were then rinsed several times with the complete medium and incubated for 1 to 2 days at 37° C. in a humidified 5% CO2/95% air incubator for stabilization. The complete medium was replaced with a basal medium (DMEM, supplemented with heat-inactivated 1% FBS, 10 mM HEPES, and penicillin 100 U/ml streptomycin 100 μg/ml). Approximately 30 mg cartilage pieces (2×3×0.35 mm/piece) were placed in 24-well plates and treated with given concentrations of test agents. After pretreatment for 1 h, 5 ng/ml of rhIL-1α was added to the culture medium and further incubated at 37° C. in a humidified 5% CO2/95% air incubator. The culture medium was collected 24 h later and stored at −20° C. until assay.
The amount of sulphated GAGs (e.g., released from proteoglycans) in the medium at the end of the reaction reflects the amount of articular cartilage degradation, which was determined using the commercially available 1,9-dimethy-methylene blue method according to the instructions of the manufacturer (Blyscan™ assay, Accurate Chemical and Scientific Corp., Westbury, N.Y.).

[2] = tested on: Sprague-Dawley (SD) rats; assay: Monosodium iodoacetate (MIA) induced osteoarthritis rat model; format: in vivo; settings: for reduction in pain sensitivity: 10 mg/kg oral per day; for Pain sensitivity, % (of week 0 mean) / Pain sensitivity, Mean: oral 10 mg/kg
Procedure: The animals were randomized and assigned to treatment groups before the study began. After anesthetization with isoflurane, rats were injected with 50 μl containing 1 mg Monosodium iodoacetate (Sigma, St. Louis, Mo.; lot #SLBB6147V) using a 26 gauge needle inserted through the patellar ligament into the intra-articular space of the right knee. Normal rats were injected with an equivalent volume of saline instead of MIA. […] The first sample treatment was administered 1 hr before MIA injection. Normal and control rats were given orally an equal volume of vehicle (0.5% CMC in saline). Body weight and allodynia were measured once a week for 4 weeks. Allodynia was evaluated by measuring responsiveness to a tip of Randall-Selitto test (2390 series, IITC, Woodland Hills, Calif.) applied perpendicular to the central plantar surface of the right hind paw.
Male Sprague—Dawley (SD) rats weighing about 170 to about 230 g (6 weeks of age) were purchased and acclimated for one week. […] Each group was orally gavaged with their respective treatment. Anesthetized rats were injected with 0.8 mg of MIA in a 50 μl saline solution into the intra-articular pocket one hour after the second dose of treatments. Pain sensitivity was measured once a week using a Randall-Salitto meter and treatment lasted for 6 weeks. Body weights were measured once a week to calculate the respective weekly dosage of each group.

[3] = tested on: Lewis rats; assay: Carrageenan-induced rat paw edema model (paw edema and pain sensitivity); format: in vivo; settings: for Pain sensitivity (Analgesia), percent change vs. vehicle, 1 hr / Paw Edema (Inflammation), percent change vs. vehicle, 1 hr: 1 hr after treatment; for Pain sensitivity (Analgesia), percent change vs. vehicle, 3 hr / Paw Edema (Inflammation), percent change vs. vehicle, 3 hr: 3 hr after treatment; for Pain sensitivity (Analgesia), percent change vs. vehicle, 5 hr / Paw Edema (Inflammation), percent change vs. vehicle, 5 hr: 5 hr after treatment; for analgesic and anti-inflammatory activity: oral, rosmarinic acid 200 mg/kg, eriocitrin 100 mg/kg, NAG 166 mg/kg; for Pain sensitivity, percent change of vehicle / Paw edema, percent change of vehicle: 100 mg/kg oral 1 hr after carrageenan, female Lewis rats
Procedure: Local inflammation was induced by intraplantar injection of carrageenan λ (Sigma, St. Louis, Mo.; 100 μl of 1% [w/v] in saline) into the plantar surface of right hind paw of sedated rat (with 2.5% isoflurane) at time 0 (T=0) (Gamache et al., J Neurosurg. 65:679, 1986; Guay et al., J. Biol. Chem. 279:24866, 2004; Chou et al., Anesth. Analg. 97:1724, 2003). Rats were acclimated in a procedure room for 20-30 minutes before each measurement was taken. Allodynia was evaluated by measuring responsiveness to the tip of a Randell-Selitto paw pressure test applied perpendicular to the central plantar surface of the right hind paw. A positive response to the applied pressure, noted by sharp withdrawal of the paw, was recorded automatically by an electronic Von Frey Anesthesiometer (2390 series Electrovonfrey, IITC, Woodland Hills, Calif.) (Vivancos et al., Braz. J. Med. Biol. Res. 37:391, 2004). Mechanical allodynia was evaluated before carrageenan inoculation, and thereafter at 1 hr, 2 hr, 4 hr and 6 hr. Paw edema volume was measured with the use of Plethysmometer (IITC, Woodland Hills, Calif.; Model 520) at time 0 (before carrageenan), and then 1 hr, 2 hr, 4 hr, and 6 hr after carrageenan injection. Animals (N=5 per group) were orally gavaged with a positive control ibuprofen (Spectrum Chemical MFG, Gardena, Calif.) (100 or 200 mg/kg); test articles such as: extracts, and combinations of extracts at various doses from 100, 200, 300 to 400 mg/kg and vehicle control (propylene glycol) were given 1 hour after carrageenan inoculation unless specified otherwise.

[4] = rabbit cartilage explants with rhIL-1α 5 ng/ml (=100)
[5] = MIA OA rats, 10 mg/kg oral, 6 weeks, modified Mankin scoring
[6] = 100 mg/kg oral, listed as eriocitrin
[7] = rhIL-1α 5 ng/ml (IL-1α alone = 100)

SMILES: COc1cc(O)c(CC=C(C)C)c(O)c1C(=O)/C=C/c1ccc(O)cc1 [Compound 13, xanthohumol]
- activity at 6.25 µg/mL [1, 4]: 77.4%
- activity at 12.5 µg/mL [1, 4]: 55.3%
- activity at 25 µg/mL [1, 4]: 59.2%
- activity at 50 µg/mL [1, 4]: 51.2%

SMILES: COc1cc(O)c(CC=C(C)C)c2c1C(=O)CC(c1ccc(O)cc1)O2 (centres unmarked) [Compound 14, isoxanthohumol]
- activity at 6.25 µg/mL [1, 4]: 97.8%
- activity at 12.5 µg/mL [1, 4]: 73.5%
- activity at 25 µg/mL [1, 4]: 41.7%
- activity at 50 µg/mL [1, 4]: 37.3%

SMILES: CC(C)=CCC12Oc3c(c(O)cc(O)c3C3C=C(C)CC(c4ccc(O)cc4O)C3C(=O)c3ccc(O)cc3O)C(=O)C1(O)Oc1cc(O)ccc12 (centres unmarked) [Compound 15, cathayanon A]
- activity at 6.25 µg/mL [1, 4]: 101%
- activity at 12.5 µg/mL [1, 4]: 99.1%
- activity at 25 µg/mL [1, 4]: 81.3%
- activity at 50 µg/mL [1, 4]: 72.4%

SMILES: O=C(O)Cc1ccccc1Nc1c(Cl)cccc1Cl [Diclofenac]
- reduction in pain sensitivity ([2]; week 5): 20.8%
- reduction in pain sensitivity ([2]; week 6): 18.2%
- articular cartilage matrix integrity, total Mankin score vs. vehicle ([2]; G:M 500 mg/kg, Diclofenac 10 mg/kg, 6 weeks): not statistically significant
- Total Mankin Score ([2]; MIA OA rats, 10 mg/kg oral, 6 weeks): 4.9 ± 2.69
- Cellular Abnormality (0-3) histopathological score [2, 5]: 1.3 ± 0.67
- Safranin-O Staining (0-4) histopathological score [2, 5]: 1.7 ± 0.82
- Pain sensitivity, % (of week 0 mean) ([2]; MIA OA rats, Week 0): 100.00%
- Pain sensitivity, Mean ([2]; MIA OA rats, Week 0, Randall-Salitto meter): 173.20
- Pain sensitivity, % (of week 0 mean) ([2]; MIA OA rats, Week 1): 84.51%
- Pain sensitivity, Mean ([2]; MIA OA rats, Week 1, Randall-Salitto meter): 146.37
- Pain sensitivity, % (of week 0 mean) ([2]; MIA OA rats, Week 2): 89.88%
- Pain sensitivity, Mean ([2]; MIA OA rats, Week 2, Randall-Salitto meter): 155.67
- Pain sensitivity, % (of week 0 mean) ([2]; MIA OA rats, Week 3): 94.05%
- Pain sensitivity, Mean ([2]; MIA OA rats, Week 3, Randall-Salitto meter): 162.90
- Pain sensitivity, % (of week 0 mean) ([2]; MIA OA rats, Week 4): 87.12%
- Pain sensitivity, Mean ([2]; MIA OA rats, Week 4, Randall-Salitto meter): 150.90
- Pain sensitivity, % (of week 0 mean) ([2]; MIA OA rats, Week 5): 84.43%
- Pain sensitivity, Mean ([2]; MIA OA rats, Week 5, Randall-Salitto meter): 146.23
- Pain sensitivity, % (of week 0 mean) ([2]; MIA OA rats, Week 6): 83.28%
- Pain sensitivity, Mean ([2]; MIA OA rats, Week 6, Randall-Salitto meter): 144.23

SMILES: C[C@@H]1O[C@@H](OC[C@H]2O[C@@H](Oc3cc(O)c4c(c3)O[C@H](c3ccc(O)c(O)c3)CC4=O)[C@H](O)[C@@H](O)[C@@H]2O)[C@H](O)[C@H](O)[C@H]1O [Eriocitrin]
- Pain sensitivity (Analgesia), percent change vs. vehicle, 1 hr ([3]; 100 mg/kg oral): 20.4* %
- Paw Edema (Inflammation), percent change vs. vehicle, 1 hr ([3]; 100 mg/kg oral): 17.2%
- Pain sensitivity (Analgesia), percent change vs. vehicle, 1 hr [3, 6]: 20.4%
- Pain sensitivity (Analgesia), percent change vs. vehicle, 3 hr ([3]; 100 mg/kg oral): 36.4* %
- Paw Edema (Inflammation), percent change vs. vehicle, 3 hr ([3]; 100 mg/kg oral): 36.0* %
- Pain sensitivity (Analgesia), percent change vs. vehicle, 3 hr [3, 6]: 36.4%
- Paw Edema (Inflammation), percent change vs. vehicle, 3 hr [3, 6]: 36.0%
- Pain sensitivity (Analgesia), percent change vs. vehicle, 5 hr ([3]; 100 mg/kg oral): 25.2* %
- Paw Edema (Inflammation), percent change vs. vehicle, 5 hr ([3]; 100 mg/kg oral): 30.0* %
- Pain sensitivity (Analgesia), percent change vs. vehicle, 5 hr [3, 6]: 25.2%
- Paw Edema (Inflammation), percent change vs. vehicle, 5 hr [3, 6]: 30.0%
- analgesic and anti-inflammatory activity [3]: significant anti-inflammatory and analgesic activities

SMILES: CC(C)=CCc1c(-c2ccc(O)cc2O)oc2c(C3C=C(C)CC(c4ccc(O)cc4O)C3C(=O)c3ccc(O)cc3O)c(O)cc(O)c2c1=O (centres unmarked) [Kuwanon G]
- Pain sensitivity, percent change of vehicle ([3]; 1 hr): 33.3* %
- Paw edema, percent change of vehicle ([3]; 1 hr): 36.5* %
- Pain sensitivity, percent change of vehicle ([3]; 3 hr): 40.5* %
- Paw edema, percent change of vehicle ([3]; 3 hr): 37.7* %
- Pain sensitivity, percent change of vehicle ([3]; 5 hr): 31.2* %
- Paw edema, percent change of vehicle ([3]; 5 hr): 29.3* %
- activity at 25 µg/mL [1, 7]: 56.6%
- activity at 50 µg/mL [1, 7]: 48%
- activity at 100 µg/mL [1, 7]: 44.4%

SMILES: CC(C)=CCc1c(-c2ccc(O)cc2O)oc2c3c(cc(O)c2c1=O)OC(C)(C)C=C3 [Morusin]
- Pain sensitivity, percent change of vehicle ([3]; 1 hr): 33.3* %
- Paw edema, percent change of vehicle ([3]; 1 hr): 37.3* %
- Pain sensitivity, percent change of vehicle ([3]; 3 hr): 38.5* %
- Paw edema, percent change of vehicle ([3]; 3 hr): 40.0* %
- Pain sensitivity, percent change of vehicle ([3]; 5 hr): 30.2* %
- Paw edema, percent change of vehicle ([3]; 5 hr): 38.0* %
- activity at 25 µg/mL [1, 7]: 48.4%
- activity at 50 µg/mL [1, 7]: 49.9%
- activity at 100 µg/mL [1, 7]: 33.6%
- protective effect on rhIL-1α-mediated PG degradation / GAG release [1]: strong inhibitory effect

SMILES: OC[C@H]1O[C@@H](Oc2cc(O)cc(/C=C/c3ccc(O[C@@H]4O[C@H](CO)[C@@H](O)[C@H](O)[C@H]4O)cc3O)c2)[C@H](O)[C@@H](O)[C@@H]1O [Mulberoside A, mulberroside A]
- Pain sensitivity, percent change of vehicle ([3]; 1 hr): 54.2* %
- Paw edema, percent change of vehicle ([3]; 1 hr): 48.4* %
- Pain sensitivity, percent change of vehicle ([3]; 3 hr): 52.2* %
- Paw edema, percent change of vehicle ([3]; 3 hr): 50.6* %
- Pain sensitivity, percent change of vehicle ([3]; 5 hr): 35.5* %
- Paw edema, percent change of vehicle ([3]; 5 hr): 37.3* %
- activity at 25 µg/mL [1, 7]: 73.1%
- activity at 50 µg/mL [1, 7]: 75.8%
- activity at 100 µg/mL [1, 7]: 70.5%
- protective effect on rhIL-1α-mediated PG degradation / GAG release [1]: strong inhibitory effect

SMILES: Oc1cc(O)cc(/C=C/c2ccc(O)cc2O)c1 [Oxyresveratrol]
- Pain sensitivity, percent change of vehicle ([3]; 1 hr): 53.3* %
- Paw edema, percent change of vehicle ([3]; 1 hr): 44.7* %
- Pain sensitivity, percent change of vehicle ([3]; 3 hr): 54.8* %
- Paw edema, percent change of vehicle ([3]; 3 hr): 54.5* %
- Pain sensitivity, percent change of vehicle ([3]; 5 hr): 38.5* %
- Paw edema, percent change of vehicle ([3]; 5 hr): 38.3* %
- activity at 25 µg/mL [1, 7]: 59.8%
- protective effect on rhIL-1α-mediated PG degradation / GAG release [1]: strong inhibitory effect

SMILES: O=C(/C=C/c1ccc(O)c(O)c1)O[C@H](Cc1ccc(O)c(O)c1)C(=O)O [RA, Rosmarinic acid]
- Pain sensitivity (Analgesia), percent change vs. vehicle, 1 hr ([3]; 200 mg/kg oral): 38.9%
- Paw Edema (Inflammation), percent change vs. vehicle, 1 hr ([3]; 200 mg/kg oral): 29.9%
- Pain sensitivity (Analgesia), percent change vs. vehicle, 3 hr ([3]; 200 mg/kg oral): 45.0%
- Paw Edema (Inflammation), percent change vs. vehicle, 3 hr ([3]; 200 mg/kg oral): 35.7%
- Pain sensitivity (Analgesia), percent change vs. vehicle, 5 hr ([3]; 200 mg/kg oral): 30.6%
- Paw Edema (Inflammation), percent change vs. vehicle, 5 hr ([3]; 200 mg/kg oral): 34.6%
- analgesic and anti-inflammatory activity [3]: significant anti-inflammatory and analgesic activities

SMILES: CC1(C)C=Cc2c(ccc3c2OC[C@@H](c2ccc(O)cc2O)C3)O1 [glabridin]
- activity at 6.25 µg/mL [1, 4]: 66.1%
- activity at 12.5 µg/mL [1, 4]: 47.9%
- activity at 25 µg/mL [1, 4]: 47.5%
- activity at 50 µg/mL [1, 4]: 46.3%
